This is an account of results in PubChem BioAssay (NCI).

Some test systems named below: CAKI-1 renal; HCT-116 colon; LOX IMVI melanoma; NCI-H226 lung; NCI-H460 lung; OVCAR-4 ovarian; SK-MEL-2 melanoma; SNB-19 CNS; SW-620 colon; UACC-257 melanoma.
Holding throughout (assay): NCI tumour cell line growth inhibition, 48 h

Each structure is given as a SMILES string. Where “and” joins values, the source holds several entries; their conditions need not be identical. Equal entries are not always repeated.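 Following 48 hours of exposure in 96-well plates, responses at five concentrations were used to interpolate endpoints linearly. GI50 marks 50% less growth. TGI denotes the concentration required for complete inhibition of growth.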 Where only a bound is given, the exact number is not on record here.

For `NC(=O)c1cc([N+](=O)[O-])cc([N+](=O)[O-])c1`, the TGI in the assay on CAKI-1 renal, with HCT-116 colon, in the assay with LOX IMVI melanoma, in the assay with NCI-H226 lung, in the assay with NCI-H460 lung and with OVCAR-4 ovarian was more than 100 µM throughout. Besides, the TGI in the assay on SK-MEL-2 melanoma, in the assay on SNB-19 CNS, in the assay on SW-620 colon and in the assay on UACC-257 melanoma was more than 100 µM throughout.

Take `N#Cc1ccc(/C=C/C(=O)c2ccccc2)cc1`: the GI50 in the assay with CAKI-1 renal is 15.1 µM and 9.59 µM; with HCT-116 colon, 1.51 µM and 1.72 µM; in the assay on LOX IMVI melanoma, 2.41 µM and 3.3 µM; in the assay with NCI-H226 lung, 27.2 µM and 15.3 µM; in the assay with NCI-H460 lung it was 14.5 µM and 8.35 µM; in the assay on OVCAR-4 ovarian it was 16.5 µM and 13.2 µM. Besides, the GI50 in the assay on SK-MEL-2 melanoma is 18.9 µM and 18.8 µM; in the assay on SNB-19 CNS, 14.4 µM and 12.5 µM; in the assay with SW-620 colon, 2.72 µM and 1.77 µM; in the assay with UACC-257 melanoma, 13.6 µM and 15.6 µM. For the same compound, the TGI is 29.6 µM and 22.8 µM with CAKI-1 renal; 3.17 µM in the assay with HCT-116 colon; 6.12 µM and 9.23 µM in the assay with LOX IMVI melanoma; > 68.8 µM and 31 µM in the assay on NCI-H226 lung; 28.9 µM and 22.4 µM in the assay on NCI-H460 lung; 36.5 µM and 27 µM in the assay with OVCAR-4 ovarian. For the same compound, the TGI with SK-MEL-2 melanoma was 39.1 µM and 37.8 µM; with SNB-19 CNS, 27.4 µM and 25.1 µM; in the assay with SW-620 colon, 7.73 µM and 3.45 µM; in the assay on UACC-257 melanoma it was 26.4 µM and 29.5 µM.

Consider `CC12CC(=O)C3C(CCC4=CC(=O)CCC43C)C1CC=C2CC(=O)O` (stereo not given), for which the TGI with CAKI-1 renal, with HCT-116 colon, with LOX IMVI melanoma, in the assay with NCI-H226 lung, with NCI-H460 lung and with OVCAR-4 ovarian was more than 100 µM each time. For the same compound, the TGI in the assay on SK-MEL-2 melanoma, in the assay with SNB-19 CNS, in the assay with SW-620 colon and in the assay with UACC-257 melanoma was more than 100 µM throughout.

Turning to `COC(=O)c1ccc2c(C(=Nc3ccc(N(C)C(=O)CN4CCN(C)CC4)cc3)c3ccccc3)c(O)[nH]c2c1`, the GI50 with CAKI-1 renal was 4.28 µM and 11.9 µM; in the assay on HCT-116 colon, 1.58 µM and 1.48 µM; with LOX IMVI melanoma it was 1.24 µM and 1.28 µM; with NCI-H226 lung it was 2.35 µM and 1.82 µM; with NCI-H460 lung it was 2.02 µM and 2.24 µM; in the assay on OVCAR-4 ovarian, 5.17 µM and 13.1 µM. For the same compound, the GI50 with SK-MEL-2 melanoma is 8.11 µM and 3.6 µM; in the assay on SNB-19 CNS, 2.6 µM and 3.55 µM; with SW-620 colon, 1.87 µM; in the assay with UACC-257 melanoma it was 1.83 µM and 1.54 µM. Also, the TGI in the assay on CAKI-1 renal was 25.3 µM and > 100 µM; with HCT-116 colon, 3.06 µM and 2.97 µM; in the assay with LOX IMVI melanoma it was 3.09 µM and 2.75 µM; in the assay with NCI-H226 lung, 24.5 µM and 59.9 µM; in the assay with NCI-H460 lung it was 4 µM and 4.96 µM; in the assay on OVCAR-4 ovarian, 59.6 µM and > 70.8 µM. The TGI in the assay on SK-MEL-2 melanoma is 19.1 µM and 8.86 µM; with SNB-19 CNS it was more than 100 µM; in the assay with SW-620 colon, 4.14 µM; in the assay on UACC-257 melanoma it was 4.48 µM and 3.1 µM.

On to `CC(C)COC(c1ccc2c(c1)OCO2)C(C)Br` (stereo not given), for which the TGI was more than 100 µM in the assay with CAKI-1 renal; 38.7 µM in the assay on HCT-116 colon; 35.4 µM in the assay with LOX IMVI melanoma; 70.7 µM with NCI-H226 lung; 51.5 µM in the assay on NCI-H460 lung; more than 100 µM with OVCAR-4 ovarian. Besides, the TGI is 44.3 µM in the assay on SK-MEL-2 melanoma, more than 100 µM in the assay on SNB-19 CNS, more than 100 µM in the assay with SW-620 colon and 55.5 µM in the assay on UACC-257 melanoma.

For `O=C1CC[C@@H](NC(=O)Cc2ccccc2)C(=O)N1`, the TGI in the assay on CAKI-1 renal, in the assay on HCT-116 colon, in the assay with LOX IMVI melanoma, in the assay with NCI-H226 lung, in the assay with NCI-H460 lung and in the assay with OVCAR-4 ovarian was more than 100 µM in each case. Also, the TGI in the assay with SK-MEL-2 melanoma, in the assay with SNB-19 CNS, in the assay on SW-620 colon and in the assay with UACC-257 melanoma was more than 100 µM in each case.

Regarding `CC/C(=N/N=C(N)N)c1ccc(NC(=O)Nc2ccc(/C(CC)=N/N=C(N)N)cc2)cc1`, the GI50 in the assay with CAKI-1 renal is 15.1 µM; in the assay with HCT-116 colon it was 5.72 µM; with LOX IMVI melanoma it was 9.41 µM; in the assay with NCI-H226 lung, 10.8 µM; with NCI-H460 lung, 4.1 µM; in the assay on OVCAR-4 ovarian it was 6.08 µM. Also, the GI50 with SK-MEL-2 melanoma was 4.03 µM; in the assay with SNB-19 CNS it was 8.55 µM; in the assay with SW-620 colon, 8.29 µM; in the assay with UACC-257 melanoma, 13.8 µM. Further, the TGI in the assay with CAKI-1 renal is 39.4 µM; with HCT-116 colon, 25.5 µM; in the assay on LOX IMVI melanoma, 35 µM; with NCI-H226 lung, 39.8 µM; with NCI-H460 lung, more than 100 µM; with OVCAR-4 ovarian, 44.8 µM. In addition, the TGI in the assay on SK-MEL-2 melanoma turned out to be 31.2 µM; in the assay on SNB-19 CNS, 85 µM; in the assay with SW-620 colon, 55.6 µM; with UACC-257 melanoma it was 42 µM.

Consider `CCCCCCCCCCCC(=O)OC(COC(N)=O)COc1ccc(Cl)cc1` (stereo not given), for which the TGI in the assay with CAKI-1 renal came out at 44.3 µM; in the assay on HCT-116 colon, 30 µM; in the assay on LOX IMVI melanoma, 55 µM; in the assay with NCI-H226 lung, 46.1 µM; in the assay on NCI-H460 lung, 47.4 µM; in the assay with OVCAR-4 ovarian, 40.9 µM. Besides, the TGI in the assay on SK-MEL-2 melanoma worked out at 74.4 µM; with SNB-19 CNS, 83 µM; in the assay on SW-620 colon, 63 µM; with UACC-257 melanoma, 51 µM.

For `Fc1ccc(-c2c(-c3ccncc3)[nH]c3nccnc23)cc1`, the GI50 was 4.52 µM in the assay on CAKI-1 renal; 6.39 µM in the assay with HCT-116 colon; 11.1 µM in the assay with LOX IMVI melanoma; 6.76 µM in the assay with NCI-H226 lung; 7.11 µM in the assay on NCI-H460 lung; more than 16.7 µM in the assay on OVCAR-4 ovarian. Besides, the GI50 in the assay on SK-MEL-2 melanoma is 13.6 µM; in the assay on SNB-19 CNS, more than 20.3 µM; with SW-620 colon, 13.6 µM; in the assay on UACC-257 melanoma, more than 20 µM. Besides, the TGI is more than 19.9 µM in the assay with CAKI-1 renal; more than 22.1 µM in the assay with HCT-116 colon; more than 25 µM with LOX IMVI melanoma; more than 25 µM in the assay with NCI-H226 lung; more than 21.3 µM with NCI-H460 lung; more than 25 µM in the assay with OVCAR-4 ovarian. In addition, the TGI in the assay on SK-MEL-2 melanoma, in the assay with SNB-19 CNS, in the assay on SW-620 colon and in the assay on UACC-257 melanoma was more than 25 µM in each case.
